Measurements from PubChem BioAssay AID1159568 (Broad Institute, 2015).
Inconclusive results are not listed. Active and inactive are the calls of the source.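 How the source made its calls: active means signal loss with an EC50 at or below twice the highest valid dose for that sample; inconclusive means flat curve with 30 to 70% inhibition, or poor fit; inactive means the rest.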

Tested on: P. falciparum Dd2 in erythrocytes, SYBR Green growth, 72 h
Assay: P. falciparum Dd2 growth inhibitors, dose response, SYBR Green, dry powder samples, set 9 (AID 1159568)

O=C(C[C@H]1C[C@H]2c3cc(NC(=O)c4ccc5c(c4)OCO5)ccc3O[C@H]2[C@H](CO)O1)NCc1ccc(Oc2ccccc2)cc1
EC50: > 39 µM (inactive)
